Assay results from patent publication US9771352B2, “Hydroxyalkyl-substituted phenyltriazole derivatives and uses thereof” (BAYER PHARMA AKTIENGESELLSCHAFT, priority 2014, dated 2017).

What was measured:
[1] = target: T1, human V2 receptor (Homo sapiens, UniProt P30518); experiment: Cellular in vitro assay for determining vasopressin receptor activity, V2 receptor cell line (CRE-luciferase); type: cell-based; details: CHO cell line transfected with human V2 receptor; [Arg8]-vasopressin at EC50; compounds of the invention (Table 1A); read-out: IC50 hV2
T1 construct: expressed in transfected cells; host or cells: CHO K1 (ATCC) expressing firefly luciferase under a CRE-responsive promoter
T1 sequence (P30518 whole entry): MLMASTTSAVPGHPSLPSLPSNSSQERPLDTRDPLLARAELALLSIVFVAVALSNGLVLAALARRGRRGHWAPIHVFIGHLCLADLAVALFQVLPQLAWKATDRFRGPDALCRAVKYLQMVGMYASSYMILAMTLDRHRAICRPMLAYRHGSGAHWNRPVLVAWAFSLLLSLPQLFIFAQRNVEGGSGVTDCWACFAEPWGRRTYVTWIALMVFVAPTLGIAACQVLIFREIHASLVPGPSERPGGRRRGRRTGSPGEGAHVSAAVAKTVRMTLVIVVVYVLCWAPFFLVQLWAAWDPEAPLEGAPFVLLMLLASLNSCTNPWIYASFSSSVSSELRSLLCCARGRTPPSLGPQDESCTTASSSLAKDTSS
Protocol: (§1) The identification of agonists and antagonists of the V1a and V2 vasopressin receptors from humans, rats and dogs as well as the quantification of the activity of the compounds of the invention is carried out using recombinant cell lines. These cell lines originally derive from a hamster's ovary epithelial cell (Chinese Hamster Ovary, CHO K1, ATCC: American Type Culture Collection, Manassas, Va. 20108, USA). The test cell lines constitutively express the human, rat or dog V1a or V2 receptors. In case of the […] V1a receptors, cells are also stably transfected with a modified form of the calcium-sensitive photoproteins aequorin (human and rat V1a) or obelin (dog V1a), which, after reconstitution with the cofactor coelenterazine, emit light when there are increases in free calcium concentrations [Rizzuto R, Simpson A W, Brini M, Pozzan T, Nature 358, 325-327 (1992); Illarionov B A, Bondar V S, Illarionova V A, Vysotski E S, Gene 153 (2), 273-274 (1995)]. The resulting vasopressin receptor cells react to stimulation of the recombinantly expressed V1a receptors by intracellular release of calcium ions, which can be quantified by the resulting photoprotein luminescence. The Gs-coupled V2 receptors are stably transfected into cell lines expressing the gene for firefly luciferase under control of a CRE-responsible promoter. Activation of V2 receptors induces the activation of the CRE-responsive promoter via cAMP increase, thereby inducing the expression of firefly luciferase. The light emitted by photoproteins of V1a cell lines as well as the light emitted by firefly luciferase of V2 cell lines corresponds to the activation or inhibition of the respective vasopressin receptor. The bioluminescence of the cell lines is detected using a suitable luminometer [Milligan G, Marshall F, Rees S, Trends in Pharmacological Sciences 17, 235-237 (1996)].
On the day before the assay, the cells are plated out in culture medium (DMEM/F12, 2% FCS, 2 mM glutamine, 10 mM HEPES) in 384-well microtiter plates and kept in a cell incubator (96% humidity, 5% v/v CO2, 37° C.). […] Upon addition of the cell lysis reagent Triton and the substrate luciferin, luminescence of firefly luciferase is measured in a luminometer.
(§2) Table 1A below lists individual IC50 values for the compounds of the invention (including diastereomeric mixtures as well as separated, enantiopure diastereomers) that were obtained from cell lines transfected with the human V1a or V2 receptor: […]

[2] = target: T2, human V1a receptor (Homo sapiens, UniProt P37288); experiment: Cellular in vitro assay for determining vasopressin receptor activity, V1a receptor cell line (photoprotein luminescence); type: cell-based; details: CHO cell line transfected with human V1a receptor; [Arg8]-vasopressin at EC50; compounds of the invention (Table 1A); read-out: IC50 hV1a
T2 construct: expressed in transfected cells; host or cells: CHO K1 (ATCC), also stably transfected with modified aequorin
T2 sequence (P37288 whole entry): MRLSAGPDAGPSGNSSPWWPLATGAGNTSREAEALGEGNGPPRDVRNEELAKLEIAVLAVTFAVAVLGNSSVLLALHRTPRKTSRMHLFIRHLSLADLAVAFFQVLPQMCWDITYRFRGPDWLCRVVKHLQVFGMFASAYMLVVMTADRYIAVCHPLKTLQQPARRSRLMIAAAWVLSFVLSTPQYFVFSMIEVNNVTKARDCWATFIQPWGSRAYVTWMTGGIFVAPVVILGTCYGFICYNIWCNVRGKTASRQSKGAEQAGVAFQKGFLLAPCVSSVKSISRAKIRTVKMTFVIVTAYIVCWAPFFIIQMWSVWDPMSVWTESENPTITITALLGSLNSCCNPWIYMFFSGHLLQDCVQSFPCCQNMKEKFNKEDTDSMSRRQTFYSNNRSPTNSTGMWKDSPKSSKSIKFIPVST
Protocol: as §1
On the day before the assay, the cells are plated out in culture medium (DMEM/F12, 2% FCS, 2 mM glutamine, 10 mM HEPES, 5 μg/ml coelenterazine) in 384-well microtiter plates and kept in a cell incubator (96% humidity, 5% v/v CO2, 37° C.). On the day of the assay, test compounds in various concentrations are placed for 10 minutes in the wells of the microtiter plate before the agonist [Arg^8]-vasopressin at EC50 concentration is added. The resulting light signal is measured immediately in the luminometer.
as §2

[3] = tested on: conscious rats; experiment: Diuresis investigations in conscious rats kept in metabolism cages; type: in vivo, Wistar rats; details: Rattus norvegicus, po, read-out: Urinary volume; for response vs control in vivo at 1 mg/kg: dosage p.o. 1.0 mg/kg (Table 2A); for response vs control in vivo at 0.3 mg/kg: dosage p.o. 0.3 mg/kg (Table 2A)
Protocol: Wistar rats (220-450 g body weight) are kept with free access to feed (Altromin) and drinking water. During the experiment, the animals are kept with free access to drinking water for 4 to 8 or up to 24 hours individually in metabolism cages suitable for rats of this weight class (Tecniplast Deutschland GmbH, D-82383 HohenpeiBenberg). At the beginning of the experiment, the animals are administered the test substance in a volume of 1 to 3 ml/kg body weight of a suitable solvent by means of gavage into the stomach. Control animals only receive solvent. Controls and substance tests are carried out in parallel on the same day. Control groups and substance-dose groups each consist of 4 to 8 animals. During the experiment, the urine excreted by the animals is collected continuously in a receiver at the base of the cage. The volume of urine per time unit is determined separately for each animal, and the concentration of urinary electrolytes is measured by standard methods of flame photometry. Before the beginning of the experiment, the body weight of the individual animals is determined.

Row | SMILES | IC50 [1] [nM] | IC50 [2] [nM] | response vs control in vivo at 1 mg/kg [3] [%] | response vs control in vivo at 0.3 mg/kg [3] [%]
1 | CC(O)c1nc(Cn2nc(-c3ccc(Cl)cc3)n(C[C@H](O)C(F)(F)F)c2=O)nn1-c1cc(F)cc(Cl)c1 (single isomer, unassigned) [Example 14] | 0.4 | 1.3 | 753 | 
2 | Cc1cccc(-n2nc(Cn3nc(-c4ccc(Cl)cc4)n(C[C@H](O)C(F)(F)F)c3=O)nc2C(C)O)c1 (single isomer, unassigned) [Example 29] | 0.2 | 2.9 | 983 | 404
3 | CC(O)c1nc(Cn2nc(-c3ccc(Cl)cc3)n(C[C@H](O)C(F)(F)F)c2=O)nn1-c1cc(Cl)ccc1Cl (single isomer, unassigned) [Example 50] | 10 | 1.3 |  | 
4 | CC(O)c1nc(Cn2nc(-c3ccc(Cl)cc3)n(C[C@H](O)C(F)(F)F)c2=O)nn1-c1cccc(Cl)c1F (single isomer, unassigned) [Example 53] | 1.8 | 7.9 |  | 
5 | CC(O)c1nc(Cn2nc(-c3ccc(Cl)cc3)n(C[C@H](O)C(F)(F)F)c2=O)nn1-c1cccc(Cl)c1F (single isomer, unassigned) [Example 54] | 1.6 | 39.7 |  | 
6 | CC(O)c1nc(Cn2nc(-c3ccc(Cl)cc3)n(C[C@H](O)C(F)(F)F)c2=O)nn1-c1cccc(OC(F)F)c1 (single isomer, unassigned) [Example 57] | 8.2 | 38.2 |  | 
7 | CC(O)c1nc(Cn2nc(-c3ccc(Cl)cc3)n(C[C@H](O)C(F)(F)F)c2=O)nn1-c1cccc(Cl)c1Cl (single isomer, unassigned) [Example 62] | 0.9 | 7.8 |  | 
8 | CC(O)c1nc(Cn2nc(-c3ccc(Cl)cc3)n(C[C@H](O)C(F)(F)F)c2=O)nn1-c1cccc(Cl)c1Cl (single isomer, unassigned) [Example 63] | 1.9 | 51.6 |  | 
9 | CC(O)c1nc(Cn2nc(-c3ccc(Cl)cc3)n(C[C@H](O)C(F)(F)F)c2=O)nn1-c1cccc(F)c1F (single isomer, unassigned) [Example 65] | 3.3 | 2.5 |  | 
10 | CC(O)c1nc(Cn2nc(-c3ccc(Cl)cc3)n(C[C@H](O)C(F)(F)F)c2=O)nn1-c1cccc(F)c1F (single isomer, unassigned) [Example 66] | 1.9 | 4 |  | 
11 | CC(O)c1nc(Cn2nc(-c3ccc(Cl)cc3)n(C[C@H](O)C(F)(F)F)c2=O)nn1-c1cccc(F)c1Cl (single isomer, unassigned) [Example 68] | 1.3 | 3.3 |  | 
12 | Cc1ccccc1-n1nc(Cn2nc(-c3ccc(Cl)cc3)n(C[C@H](O)C(F)(F)F)c2=O)nc1C(C)O (single isomer, unassigned) [Example 71] | 2.1 | 0.6 |  | 
13 | CC(O)c1nc(Cn2nc(-c3ccc(Cl)cc3)n(C[C@H](O)C(F)(F)F)c2=O)nn1-c1ccccc1C(F)(F)F (single isomer, unassigned) [Example 74] | 24.7 | 2.2 |  | 
14 | O=c1n(Cc2nc(CO)n(-c3cc(F)cc(F)c3)n2)nc(-c2ccc(Cl)cc2)n1C[C@H](O)C(F)(F)F [Example 7, 5-(4-Chlorophenyl)-2-{[1-(3,5-difluorophenyl)-5-(hydroxymethyl)-1H-1,2,4-triazol-3-yl]methyl}-4-[(2S)-3,3,3-trifluoro-2-hydroxypropyl]-2,4-dihydro-3H-1,2,4-triazol-3-one] | 2.6 | 7.6 |  | 
15 | O=c1n(Cc2nc(CO)n(-c3ccccc3C(F)(F)F)n2)nc(-c2ccc(Cl)cc2)n1C[C@H](O)C(F)(F)F [Example 8, 5-(4-Chlorophenyl)-2-({5-(hydroxymethyl)-1-[2-(trifluoromethyl)phenyl]-1H-1,2,4-triazol-3-yl}-methyl)-4-[(2S)-3,3,3-trifluoro-2-hydroxypropyl]-2,4-dihydro-3H-1,2,4-triazol-3-one] | 10.7 | 1.2 |  | 
16 | C[C@@H](O)c1nc(Cn2nc(-c3ccc(Cl)cc3)n(C[C@H](O)C(F)(F)F)c2=O)nn1-c1cccc(Cl)c1 [Example 80, 5-(4-Chlorophenyl)-2-({1-(3-chlorophenyl)-5-[(1R)-1-hydroxyethyl]-1H-1,2,4-triazol-3-yl}-methyl)-4-[(2S)-3,3,3-trifluoro-2-hydroxypropyl]-2,4-dihydro-3H-1,2,4-triazol-3-one] | 5.1 | 46.3 |  | 

Second part, led by results:

Row | IC50 [1] [nM] | IC50 [2] [nM] | SMILES | response vs control in vivo at 1 mg/kg [3] [%] | response vs control in vivo at 0.3 mg/kg [3] [%]
17 | 4.1 | 38.4 | CC(O)c1nc(Cn2nc(-c3ccc(Cl)cc3)n(C[C@H](O)C(F)(F)F)c2=O)nn1-c1cc(F)cc(Cl)c1 (single isomer, unassigned) [Example 15] |  | 412
18 | 3.4 | 2.7 | CC(O)c1nc(Cn2nc(-c3ccc(Cl)cc3)n(C[C@H](O)C(F)(F)F)c2=O)nn1-c1ccccc1 (single isomer, unassigned) [Example 17] | 819 | 404
19 | 2.4 | 3.2 | CC(O)c1nc(Cn2nc(-c3ccc(Cl)cc3)n(C[C@H](O)C(F)(F)F)c2=O)nn1-c1cc(Cl)cc(Cl)c1 (single isomer, unassigned) [Example 48] |  | 
20 | 22.3 | 3 | CC(O)c1nc(Cn2nc(-c3ccc(Cl)cc3)n(C[C@H](O)C(F)(F)F)c2=O)nn1-c1cc(Cl)ccc1Cl (single isomer, unassigned) [Example 51] |  | 
21 | 1.4 | 2.4 | CC(O)c1nc(Cn2nc(-c3ccc(Cl)cc3)n(C[C@H](O)C(F)(F)F)c2=O)nn1-c1cccc(OC(F)F)c1 (single isomer, unassigned) [Example 56] |  | 
22 | 2.7 | 2.1 | CC(O)c1nc(Cn2nc(-c3ccc(Cl)cc3)n(C[C@H](O)C(F)(F)F)c2=O)nn1-c1cccc(F)c1Cl (single isomer, unassigned) [Example 67] |  | 
23 | 7 | 1.1 | CC(O)c1nc(Cn2nc(-c3ccc(Cl)cc3)n(C[C@H](O)C(F)(F)F)c2=O)nn1-c1ccccc1C(F)(F)F (single isomer, unassigned) [Example 73] |  | 
24 | 2.3 | 0.4 | O=c1n(Cc2nc(CO)n(-c3cc(F)ccc3Cl)n2)nc(-c2ccc(Cl)cc2)n1C[C@H](O)C(F)(F)F [Example 9, 2-{[1-(2-Chloro-5-fluorophenyl)-5-(hydroxymethyl)-1H-1,2,4-triazol-3-yl]methyl}-5-(4-chlorophenyl)-4-[(2S)-3,3,3-trifluoro-2-hydroxypropyl]-2,4-dihydro-3H-1,2,4-triazol-3-one] |  | 
25 | 13.5 | 12.5 | C[C@@H](O)c1nc(Cn2nc(-c3ccc(Cl)cc3)n(C[C@H](O)C(F)(F)F)c2=O)nn1-c1cccc(F)c1 [Example 77, 5-(4-Chlorophenyl)-2-({1-(3-fluorophenyl)-5-[(1R)-1-hydroxyethyl]-1H-1,2,4-triazol-3-yl}-methyl)-4-[(2S)-3,3,3-trifluoro-2-hydroxypropyl]-2,4-dihydro-3H-1,2,4-triazol-3-one] |  | 
